Reference: patent US8106091B2, “Inhibitors of IKK-beta serine-threonine protein kinase” (Chroma Therapeutics Ltd., priority 2006, dated 2012)

Experiments:
[1] = system: human whole blood; experiment: LPS-stimulation of human whole blood, TNF-α release; assay type: cell-based; details: LPS 100 ng/ml, 6 hrs, inhibitor added 2 hrs before, read-out: Inhibitor activity versus human whole blood TNFα release
Procedure: LPS-Stimulation of Human Whole Blood
Whole blood was taken by venous puncture using heparinised vacutainers (Becton Dickinson) and diluted in an equal volume of RPMI1640 tissue culture media (Sigma). 100 μl was plated in V-bottomed 96 well tissue culture treated plates. 2 hrs after the addition of the inhibitor in 100 μl of RPMI1640 media, the blood was stimulated with LPS (E coli strain 005:B5, Sigma) at a final concentration of 100 ng/ml and incubated at 37° C. in 5% CO2 for 6 hrs. TNF-α levels were measured from cell-free supernatants by sandwich ELISA (R&D Systems #QTA00B)

[2] = target: T1, IKBKB (IKKβ) (Homo sapiens, UniProt O14920); experiment: IKKβ enzyme assay (Z'-LYTE, Invitrogen); assay type: biochemical; details: ATP at or close to Km; read-out: Inhibitor activity versus IKKβ
T1 construct: purchased Invitrogen (Paisley, UK)
T1 sequence (O14920 1-756): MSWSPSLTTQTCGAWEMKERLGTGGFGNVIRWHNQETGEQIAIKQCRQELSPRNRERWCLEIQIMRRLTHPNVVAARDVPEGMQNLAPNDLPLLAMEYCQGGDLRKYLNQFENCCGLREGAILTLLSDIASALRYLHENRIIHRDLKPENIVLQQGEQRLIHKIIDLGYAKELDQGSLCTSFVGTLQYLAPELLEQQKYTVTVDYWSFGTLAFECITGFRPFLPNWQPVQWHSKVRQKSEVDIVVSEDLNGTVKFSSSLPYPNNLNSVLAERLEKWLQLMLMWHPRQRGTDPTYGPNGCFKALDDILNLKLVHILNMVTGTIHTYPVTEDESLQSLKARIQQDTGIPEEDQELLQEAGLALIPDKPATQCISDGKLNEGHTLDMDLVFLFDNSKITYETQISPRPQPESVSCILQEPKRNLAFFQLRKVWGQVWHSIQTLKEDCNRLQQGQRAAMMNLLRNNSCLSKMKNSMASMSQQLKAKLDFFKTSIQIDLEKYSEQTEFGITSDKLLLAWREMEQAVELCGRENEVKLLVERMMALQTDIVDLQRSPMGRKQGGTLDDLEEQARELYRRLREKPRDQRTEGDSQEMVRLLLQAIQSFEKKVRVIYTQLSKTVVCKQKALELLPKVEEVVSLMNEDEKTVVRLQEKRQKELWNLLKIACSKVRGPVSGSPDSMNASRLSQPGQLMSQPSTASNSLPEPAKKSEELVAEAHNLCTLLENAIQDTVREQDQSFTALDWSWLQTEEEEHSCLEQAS
Procedure: The ability of compounds to inhibit IKKβ kinase activity was measured in an assay performed by Invitrogen (Paisley, UK). The Z′-LYTE™ biochemical assay employs a fluorescence-based, coupled-enzyme format and is based on the differential sensitivity of phosphorylated and non-phosphorylated peptides to proteolytic cleavage. The peptide substrate is labelled with two fluorophores—one at each end—that make up a FRET pair. In the primary reaction, the kinase transfers the gamma-phosphate of ATP to a single serine or threonine residue in a synthetic FRET-peptide. In the secondary reaction, a site-specific protease recognizes and cleaves non-phosphorylated FRET-peptides. Phosphorylation of FRET-peptides suppresses cleavage by the Development Reagent. Cleavage disrupts FRET between the donor (i.e., coumarin) and acceptor (i.e. fluorescein) fluorophores on the FRET-peptide, whereas uncleaved, phosphorylated FRET-peptides maintain FRET. A […] method, which calculates the ratio (the Emission Ratio) of donor emission to acceptor emission after excitation of the donor fluorophore at 400 nm, is used to quantitate reaction progress.
The final 10 μL Kinase Reaction consists of 0.9-8.0 ng IKBKB (IKKβ), 2 μM Ser/Thr 05 Peptide and ATP in 50 mM HEPES pH 7.5, 0.01% BRIJ-35, 10 mM MgCl2, 1 mM EGTA. The assay is performed at an ATP concentration at, or close to the Km. After the 60 minute Kinase Reaction incubation at room temperature, 5 μL of a 1:128 dilution of Development Reagent is added. The assay plate is incubated for a further 60 minutes at room temperature and read on a fluorescence plate reader.
Duplicate data points are generated from a ⅓ log dilution series of a stock solution of test compound in DMSO. Nine dilutions steps are made from a top concentration of 10 μM, and a ‘no compound’ blank is included. Data is collected and analysed using XLfit software from IDBS. The dose response curve is curve fitted to model number 205 (sigmoidal dose-response model). From the curve generated, the concentration giving 50% inhibition is determined and reported.

[3] = system: THP-1 cells; experiment: LPS-stimulation of THP-1 cells, TNF-α release; assay type: cell-based; details: Homo sapiens, LPS 1 μg/ml, 6 hrs, inhibitor added 2 hrs before, read-out: Inhibitor activity versus THP-1 TNFα release
Procedure: LPS-Stimulation of THP-1 Cells
THP-1 cells were plated in 100 μl at a density of 4×10^4 cells/well in V-bottomed 96 well tissue culture treated plates and incubated at 37° C. in 5% CO2 for 16 hrs. 2 hrs after the addition of the inhibitor in 100 μl of tissue culture media, the cells were stimulated with LPS (E coli strain 005:B5, Sigma) at a final concentration of 1 μg/ml and incubated at 37° C. in 5% CO2 for 6 hrs. TNF-α levels were measured from cell-free supernatants by sandwich ELISA (R&D Systems #QTA00B)

Row | SMILES | IC50 [1] [nM] | IC50 [2] [nM] | IC50 [3] [nM]
1 | Cc1cc(-c2cc(C(N)=O)c(NC(N)=O)s2)ccc1/C=C/C[C@H](N)C(=O)OC1CCCC1 [Example 14, Cyclopentyl (2S,4E)-2-amino-5-{4-[4-carbamoyl-5-(carbamoylamino)-2-thienyl]-2-methylphenyl}pent-4-enoate] | < 1000 | < 1000 | < 1000
2 | NC(=O)Nc1sc(-c2ccc(OCC[C@H](N)C(=O)OC3CCCC3)c(Cl)c2)cc1C(N)=O [Example 8, Cyclopentyl O-{4-[4-carbamoyl-5-(carbamoylamino)-2-thienyl]-2-chlorolphenyl}-L-homoserinate] | > 5000 | < 1000 | 1000 to 5000
3 | NC(=O)Nc1sc(-c2ccc(/C=C/C[C@H](N)C(=O)OC3CCCC3)cc2)cc1C(N)=O [Example 9, Cyclopentyl (2S,4E)-2-amino-5-{4-[4-carbamoyl-5-(carbamoylamino)-2-thienyl]phenyl}pent-4-enoate] | < 1000 | < 1000 | < 1000
4 | NC(=O)Nc1sc(-c2ccc(/C=C\C[C@H](N)C(=O)OC3CCCC3)cc2)cc1C(N)=O [Example 18, Cyclopentyl (2S,4Z)-2-amino-5-{4-[4-carbamoyl-5-(carbamoylamino)-2-thienyl]phenyl}pent-4-enoate] | 1000 to 5000 | < 1000 | 1000 to 5000
5 | NC(=O)Nc1cc(-c2ccc(C[C@H](N)C(=O)OC3CCCC3)cc2)sc1C(N)=O [Example 24, Cyclopentyl 4-[5-carbamoyl-4-(carbamoylamino)-2-thienyl]-L-phenylalaninate] |  | < 1000 | > 5000
6 | NC(=O)Nc1sc(-c2ccc(/C=C/C[C@@H](N)C(=O)OC3CCCC3)cc2)cc1C(N)=O [Example 10, Cyclopentyl (2R,4E)-2-amino-5-{4-[4-carbamoyl-5-(carbamoylamino)-2-thienyl]phenyl}pent-4-enoate] | < 1000 | < 1000 | < 1000
7 | NC(=O)Nc1sc(-c2ccc(OCC[C@@H](N)C(=O)OC3CCCC3)cc2)cc1C(N)=O [Example 1, Cyclopentyl O-{4-[4-carbamoyl-5-(carbamoylamino)-2-thienyl]phenyl}-D-homoserinate] | 1000 to 5000 | < 1000 | < 1000
8 | NC(=O)Nc1sc(-c2ccc(OCC[C@H](NC3CCCCC3)C(=O)OC3CCCC3)cc2)cc1C(N)=O [Example 19, Cyclopentyl O-{4-[4-carbamoyl-5-(carbamoylamino)thiophen-2-yl]phenyl}-N-cyclohexyl-L-homoserinate] |  | < 1000 | > 5000
9 | Cc1cc(OCC[C@H](N)C(=O)OC2CCCC2)ccc1-c1cc(C(N)=O)c(NC(N)=O)s1 [Example 5, Cyclopentyl O-{4-[4-carbamoyl-5-(carbamoylamino)-2-thienyl]-3-methylphenyl}-L-homoserinate] | > 5000 | < 1000 | < 1000
10 | NC(=O)Nc1sc(-c2ccc(CCC[C@@H](N)C(=O)OC3CCCC3)cc2)cc1C(N)=O [Example 12, Cyclopentyl 5-{4-[4-carbamoyl-5-(carbamoylamino)-2-thienyl]phenyl}-D-norvalinate] |  | < 1000 | < 1000

Next, values leading:

Row | IC50 [1] [nM] | IC50 [2] [nM] | IC50 [3] [nM] | SMILES
11 | 1000 to 5000 | < 1000 | < 1000 | NC(=O)Nc1sc(-c2ccc(/C=C/C[C@H](N)C(=O)OC3CCCC3)cc2Cl)cc1C(N)=O [Example 13, Cyclopentyl (2S,4E)-2-amino-5-{4-[4-carbamoyl-5-(carbamoylamino)-2-thienyl]-3-chlorophenyl}pent-4-enoate]
12 | > 5000 | < 1000 | 1000 to 5000 | NC(=O)Nc1sc(-c2ccc(OCCC[C@H](N)C(=O)OC3CCCC3)cc2)cc1C(N)=O [Example 3, Cyclopentyl 5-{4-[4-carbamoyl-5-(carbamoylamino)-2-thienyl]phenoxy}-L-norvalinate]
13 | 1000 to 5000 | < 1000 | < 1000 | NC(=O)Nc1sc(-c2ccc(CCC[C@H](N)C(=O)OC3CCCC3)cc2)cc1C(N)=O [Example 11, Cyclopentyl 5-{4-[4-carbamoyl-5-(carbamoylamino)-2-thienyl]phenyl}-L-norvalinate]
14 | 1000 to 5000 | < 1000 | < 1000 | NC(=O)Nc1sc(-c2ccc(C[C@H](N)C(=O)OC3CCCC3)cc2)cc1C(N)=O [Example 16, Cyclopentyl 4-[4-carbamoyl-5-(carbamoylamino)-2-thienyl]-L-phenylalaninate]
15 | > 5000 | < 1000 | < 1000 | NC(=O)Nc1sc(-c2ccc(OCC[C@H](N)C(=O)OC3CCCC3)cc2Cl)cc1C(N)=O [Example 7, Cyclopentyl O-{4-[4-carbamoyl-5-(carbamoylamino)-2-thienyl]-3-chlorophenyl}-L-homoserinate]
16 | > 5000 | < 1000 | < 1000 | Cc1cc(-c2cc(C(N)=O)c(NC(N)=O)s2)ccc1OCC[C@H](N)C(=O)OC1CCCC1 [Example 6, Cyclopentyl O-{4-[4-carbamoyl-5-(carbamoylamino)-2-thienyl]-2-methylphenyl}-L-homoserinate]
17 | > 5000 | < 1000 | 1000 to 5000 | NC(=O)Nc1sc(-c2ccc(C#CC[C@H](N)C(=O)OC3CCCC3)cc2)cc1C(N)=O [Example 15, Cyclopentyl (2S)-2-amino-5-{4-[4-carbamoyl-5-(carbamoylamino)-2-thienyl]phenyl}pent-4-ynoate]
